Each structure is given as a SMILES string.

This passage reports IC50 results from US11873291B2, “Quinoline cGAS antagonist compounds” (ImmuneSensor Therapeutics, Inc., priority 2020, dated 2024).

T1 sequence (Q8N884 147-522): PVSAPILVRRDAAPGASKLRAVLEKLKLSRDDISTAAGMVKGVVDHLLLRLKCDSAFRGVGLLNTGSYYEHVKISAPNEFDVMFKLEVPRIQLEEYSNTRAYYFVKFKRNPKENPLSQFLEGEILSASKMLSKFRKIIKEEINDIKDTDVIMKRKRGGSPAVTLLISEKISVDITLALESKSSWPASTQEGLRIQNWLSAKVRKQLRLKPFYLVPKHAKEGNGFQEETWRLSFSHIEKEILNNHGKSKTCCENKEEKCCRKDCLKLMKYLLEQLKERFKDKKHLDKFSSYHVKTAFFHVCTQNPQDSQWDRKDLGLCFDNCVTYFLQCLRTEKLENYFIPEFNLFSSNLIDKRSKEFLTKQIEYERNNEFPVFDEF

One assay has as its target T1, recombinant human cGAS (aa147-522) (Homo sapiens, UniProt Q8N884).
T1 construct: recombinant human cGAS (aa147-522); His6-SUMO (cleaved yes); made in house; host or cells: E. coli BL21/pLys
Put plainly: In vitro inhibition assay of cGAS activity (ATP consumption, KinaseGlo Max). To be noted: Table 2, read-out: cGAS Inhibition Results IC50. It counts as biochemical. Put shortly:
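De-tagged recombinant human cGAS (aa147-522, 1.5 μg/mL) was incubated 20 min at 37 °C with herring testis DNA, 6.6 μM ATP and 0.1 mM GTP in Tris pH 7.5/MgCl2 buffer plus serial compound dilutions. Remaining ATP was read by KinaseGlo Max luminescence, and IC50 was fitted from % ATP consumption versus log concentration.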
For orientation: Kinase-Glo measures the ATP left after a reaction by luminescence.
`O=C1NCCC1Nc1cc(-n2ccnc2)c2ccc(Cl)cc2n1` (centres unmarked) [I-367]: the IC50 is more than 30000 nM. On the same count and under the same terms, next, `O=C(O)[C@H]1CCCN1c1cc(-c2cn[nH]c2)nc2c(Cl)c(Cl)ccc12` [I-292]: 2000 to 30000 nM; `O=C(O)c1cc(-c2cc(-n3ccnc3)c3ccc(Cl)cc3n2)cnc1O` [I-57, 5-(7-chloro-4-(1H-imidazol-1-yl)quinolin-2-yl)-2-hydroxynicotinic acid]: 2000 to 30000 nM; `OCC1CN(c2cc(-n3ccnc3)c3ccc(Cl)c(Cl)c3n2)CCO1` (centres unmarked) [I-98]: 2000 to 30000 nM. For `O=C(O)c1cc2c(c(-c3cc(-n4ccnc4)c4ccc(Cl)cc4n3)c1)OC(F)(F)O2` [I-38], the IC50 is more than 30000 nM. With `C[C@@H](CC(=O)O)Nc1cc(-n2ccnc2)c2ccc(Cl)c(Cl)c2n1` [I-186], the IC50 is less than 2000 nM. On the same count and under the same terms, to `CN(CCN1CCOCC1)c1cc(-c2cn[nH]c2)c2ccc(Cl)c(Cl)c2n1` [I-214] belongs 2000 to 30000 nM; to `OB(O)C1CCCN(c2cc(-n3ccnc3)c3ccc(Cl)c(Cl)c3n2)C1` (centres unmarked) [I-120, (1-(7,8-Dichloro-4-(1H-imidazol-1-yl)quinolin-2-yl)piperidin-3-yl)boronic acid], less than 2000 nM; to `O=C(O)CNc1cc(-n2ccnc2)c2ccc(Cl)cc2n1` [I-166, (7-chloro-4-(1H-imidazol-1-yl)quinolin-2-yl)glycine], 2000 to 30000 nM. The same measure, in the same setting: next, `Clc1ccc2c(-c3cc[nH]c3)cc(-c3ccccc3)nc2c1` [I-72]: more than 30000 nM; `CC(=O)c1cn(-c2cc(-c3ccccc3)nc3cc(Cl)ccc23)cn1` [I-66]: more than 30000 nM; `COC(=O)CCS(=O)(=O)NC[C@@H]1CCCN1c1cc(-n2ccnc2)c2ccc(Cl)c(Cl)c2n1` [I-390]: 2000 to 30000 nM. On to `O=P(O)(O)CCCNc1cc(-c2cn[nH]c2)c2ccc(Cl)c(Cl)c2n1` [I-397, (3-((7,8-dichloro-4-(1H-pyrazol-4-yl)quinolin-2-yl)amino)propyl)phosphonic acid], for which the IC50 is less than 2000 nM.

For the compound `NS(=O)(=O)CCNc1cc(-c2cn[nH]c2)c2ccc(Cl)c(F)c2n1` [I-262], the IC50 was less than 2000 nM. On to `CN(CCNS(C)(=O)=O)c1cc(-n2ccnc2)c2ccc(Cl)cc2n1` [I-234], for which the IC50 was less than 2000 nM. On the same count and under the same terms, to `N#CCc1cn(-c2cc(-c3ccccc3)nc3cc(Cl)ccc23)cn1` [I-64] belongs more than 30000 nM; to `CC(C)[C@@H](CC(=O)O)Nc1cc(-n2ccnc2)c2ccc(Cl)c(Cl)c2n1` [I-187], 2000 to 30000 nM. Regarding `CN(CCC(=O)O)c1cc(-c2cn[nH]c2)c2ccc(Cl)c(Cl)c2n1` [I-184], the IC50 is less than 2000 nM.

As to `C[C@@]1(C(=O)O)CCCN1c1cc(-n2ccnc2)c2ccc(Cl)c(Cl)c2n1` [I-436], the IC50 is 2000 to 30000 nM. On the same count and under the same terms, to `COc1ccc(-c2cc(-n3ccnc3)c3ccc(Cl)cc3n2)cc1` [I-2, 7-chloro-4-(1H-imidazol-1-yl)-2-(4-methoxyphenyl)quinoline] belongs 2000 to 30000 nM; to `O=C(O)c1ccccc1Oc1cc(-n2ccnc2)c2ccc(Cl)cc2n1` [I-283], more than 30000 nM; to `Brc1ccc2c(-n3ccnc3)cc(-c3cccnc3)nc2c1` [I-384], 2000 to 30000 nM. On the same count and under the same terms, to `O=C(O)c1ccccc1-c1cc(-n2ccnc2)c2ccc(Cl)cc2n1` [I-13] belongs more than 30000 nM. The same measure, in the same setting: to `Oc1ccc(-c2cc(-n3ccnc3)c3ccc(Cl)cc3n2)cn1` [I-58] belongs more than 30000 nM; to `O=C(O)C1CN(c2cc(-n3ccnc3)c3ccc(Cl)c(Cl)c3n2)CCN1C(=O)CO` (centres unmarked) [I-83, 4-(7,8-dichloro-4-(1H-imidazol-1-yl)quinolin-2-yl)-1-(2-hydroxyacetyl)piperazine-2-carboxylic acid], 2000 to 30000 nM. `O=C(O)c1ccc(Cl)c(-c2cc(-n3ccnc3)c3ccc(Cl)cc3n2)c1` [I-31]: the IC50 is more than 30000 nM.

Take `O=C(O)CCS(=O)(=O)NC[C@@H]1CCCN1c1cc(-n2ccnc2)c2ccc(Cl)c(Cl)c2n1` [I-335]: the IC50 is less than 2000 nM. Regarding `O=C(O)CCNC(=O)[C@H]1CN(c2cc(-c3cn[nH]c3)c3ccc(Cl)c(Cl)c3n2)CCO1` [I-344], the IC50 was less than 2000 nM. The same measure, in the same setting: to `O=C(O)c1cc2c(c(-c3cc(-n4ccnc4)c4ccc(Cl)cc4n3)c1)OCO2` [I-37] belongs more than 30000 nM; to `O=C(O)C[C@@H]1CCCN1c1cc(-c2cn[nH]c2)c2ccc(Cl)c(Cl)c2n1` [I-444], less than 2000 nM; to `Clc1ccc2c(-n3ccnc3)cc(N3CCCCC3)nc2c1Cl` [I-121], 2000 to 30000 nM.

As for `O=C(O)[C@@H]1CCCN(c2cc(-n3ccnc3)c3ccc(Cl)cc3n2)C1` [I-357], the IC50 lay within 2000 to 30000 nM. Regarding `OCCNc1cc(-c2cn[nH]c2)nc2c(Cl)c(Cl)ccc12` [I-289, 2-((7,8-dichloro-2-(1H-pyrazol-4-yl)quinolin-4-yl)amino)ethan-1-ol], the IC50 lay within 2000 to 30000 nM. Still for that read-out and setting: next, `CC(=O)OCC(=O)NC1CCCN(c2cc(-n3ccnc3)c3ccc(Cl)cc3n2)C1` (centres unmarked) [I-395, 2-((1-(7-chloro-4-(1H-imidazol-1-yl)quinolin-2-yl)piperidin-3-yl)amino)-2-oxoethyl acetate]: 2000 to 30000 nM; `O=C(Nc1ccccc1)[C@@H]1CCCN1c1cc(-n2ccnc2)c2ccc(Cl)c(Cl)c2n1` [I-348]: more than 30000 nM; `O=C(O)CCc1cc(-c2cn[nH]c2)c2ccc(Cl)c(Cl)c2n1` [I-270, 3-(7,8-dichloro-4-(1H-pyrazol-4-yl)quinolin-2-yl)propanoic acid]: less than 2000 nM.

Consider `c1ccc2c(-n3cccn3)ccnc2c1` [I-413], for which the IC50 is more than 30000 nM. As for `O=C(O)[C@@H]1CCCN1C(=O)C[C@@H]1CCCN1c1cc(-c2cn[nH]c2)c2ccc(Cl)c(Cl)c2n1` [I-325], the IC50 was less than 2000 nM. `O=C(O)C1CN(c2cc(-c3cn[nH]c3)c3ccc(Cl)c(Cl)c3n2)CCO1` (centres unmarked) [I-369]: the IC50 is less than 2000 nM. On the same count and under the same terms, to `Fc1ccc(Cc2cc(-n3ccnc3)c3ccc(Br)cc3n2)cc1` [I-275] belongs more than 30000 nM.

For `CN(CCC(N)=O)c1cc(-c2cn[nH]c2)c2ccc(Cl)c(Cl)c2n1` [I-191], the 50% inhibitory concentration (IC50) is less than 2000 nM. The same measure, in the same setting: to `O=C(O)C1CN(c2cc(-n3ccnc3)c3ccc(Cl)c(Cl)c3n2)CCN1CCO` (centres unmarked) [I-81] belongs less than 2000 nM.

The assay is the same for the next values; noted with them: Table 3, read-out: cGAS Inhibition Results IC50.
In the case of `CC1(C)C[C@@H](C(=O)O)N(c2cc(-n3ccnc3)c3ccc(Cl)c(Cl)c3n2)C1` [I-479], the IC50 was less than 2000 nM. As for `CO[C@H]1CCN(c2cc(-n3ccnc3)c3ccc(Cl)c(Cl)c3n2)[C@@H]1C(=O)O` [I-560], the IC50 was less than 2000 nM. The same measure, in the same setting: next, `O=C(O)[C@@H]1C[C@H](F)CN1c1cc(-n2ccnc2)c2ccc(Cl)c(Cl)c2n1` [I-466]: less than 2000 nM. On to `COC(=O)[C@@H]1c2ccccc2CN1c1cc(-n2ccnc2)c2ccc(Cl)c(Cl)c2n1` [I-660], for which the half-maximal inhibitory concentration (IC50) was 2000 to 30000 nM. On to `CN(CCS(=O)(=O)NC1CCCC(C(=O)O)C1)c1cc(-n2ccnc2)c2ccc(Cl)c(Cl)c2n1` (centres unmarked) [I-628], for which the IC50 was less than 2000 nM. Same read-out and setting: next, `COC(=O)CO[C@@H]1CCN(c2cc(-n3ccnc3)c3ccc(Cl)c(Cl)c3n2)C1` [I-768]: 2000 to 30000 nM; `CC(C)(C)c1ccc2c(-n3ccnc3)cc(N3CCC[C@H]3COCCC(=O)O)nc2c1` [I-858]: more than 30000 nM; `O=C(O)CCNC(=O)[C@@H]1CN(c2cc(-n3ccnc3)c3ccc(Cl)c(Cl)c3n2)CCO1` [I-555]: less than 2000 nM.

On to `O=C(O)C12CC(Nc3cc(-n4ccnc4)c4ccc(Cl)c(Cl)c4n3)(C1)C2` [I-513], for which the IC50 is less than 2000 nM. With `O=C(O)CCOC[C@@H]1CCCN1c1cc(-n2ccnc2)c2ccc(Cl)c(-c3ccccc3)c2n1` [I-863, (S)-3-((1-(7-chloro-4-(1H-imidazol-1-yl)-8-phenylquinolin-2-yl)pyrrolidin-2-yl)methoxy)propanoic acid], the IC50 was more than 30000 nM. The same measure, in the same setting: next, `O=C(O)CNC(=O)O[C@@H]1C[C@@H](C(=O)O)N(c2cc(-n3ccnc3)c3ccc(Cl)c(Cl)c3n2)C1` [I-607]: less than 2000 nM; `O=C(O)CCOC[C@@H]1CCC(=O)N1c1cc(-n2ccnc2)c2ccc(Cl)c(Cl)c2n1` [I-812, (S)-3-((1-(7,8-dichloro-4-(1H-imidazol-1-yl)quinolin-2-yl)-5-oxopyrrolidin-2-yl)methoxy)propanoic acid]: less than 2000 nM. The same measure, in the same setting: to `O=C(O)CO[C@@H]1CCN(c2cc(-n3ccnc3)c3ccc(Cl)c(Cl)c3n2)C1` [I-766] belongs less than 2000 nM; to `CC(C)(O)[C@@H]1CCCN1c1cc(-n2ccnc2)c2ccc(Cl)c(Cl)c2n1` [I-484], 2000 to 30000 nM; to `COC(=O)[C@@H]1c2ccccc2CN1c1cc(-n2ccnc2)c2ccc(Cl)c(Cl)c2n1` [I-588], less than 2000 nM. Same read-out and setting: next, `O=C(O)C1CCN(C(=O)[C@@H]2CCCN2c2cc(-n3ccnc3)c3ccc(Cl)c(Cl)c3n2)CC1` [I-548]: less than 2000 nM; `CC(C)(NC(=O)C[C@@H]1CCCN1c1cc(-n2ccnc2)c2ccc(Cl)c(Cl)c2n1)C(=O)O` [I-527]: less than 2000 nM; `COC(=O)[C@@H]1C[C@H](OCCC(=O)O)CN1c1cc(-n2ccnc2)c2ccc(Cl)c(Cl)c2n1` [I-871]: 2000 to 30000 nM. `O=C(O)CO[C@@H]1CCN(c2cc(-n3ccnc3)c3ccc(Cl)c(Cl)c3n2)[C@@H]1C(=O)O` [I-561]: the IC50 was less than 2000 nM. The same measure, in the same setting: to `Clc1ccc2c(-n3ccnc3)cc(N3CCC[C@H]3c3nn[nH]n3)nc2c1Cl` [I-465] belongs less than 2000 nM. The same measure, in the same setting: to `O=C(O)[C@H]1[C@H](O)CCN1c1cc(-n2ccnc2)c2ccc(Cl)c(Cl)c2n1` [I-498] belongs 2000 to 30000 nM; to `O=C(O)c1ccc(S(=O)(=O)NC[C@@H]2CCCN2c2cc(-n3ccnc3)c3ccc(Cl)c(Cl)c3n2)cc1` [I-640], less than 2000 nM.

The assay is the same for the next values; noted with them: cGAS Inhibition Results IC50, Table 2.
As to `CCOP(=O)(O)CNc1cc(-c2cn[nH]c2)c2ccc(Cl)c(Cl)c2n1` [I-253, Ethyl hydrogen (7,8-dichloro-4-(1H-pyrazol-4-yl)quinolin-2-ylamino)methylphosphonate], the IC50 was less than 2000 nM.

For orientation: IC50 means the concentration needed to halve the response being measured.
